Data: patent US7491704B2, “Compounds for enzyme inhibition” (Proteolix, Inc., priority 2004, dated 2009)

Key:
[1] = molecular target: T1, proteasome chymotrypsin-like activity (CT-L), cell-based (Homo sapiens, UniProt P28074); test: Cell-based CT-L activity inhibition
T1 construct: endogenous in cells
T1 sequence (P28074 60-263): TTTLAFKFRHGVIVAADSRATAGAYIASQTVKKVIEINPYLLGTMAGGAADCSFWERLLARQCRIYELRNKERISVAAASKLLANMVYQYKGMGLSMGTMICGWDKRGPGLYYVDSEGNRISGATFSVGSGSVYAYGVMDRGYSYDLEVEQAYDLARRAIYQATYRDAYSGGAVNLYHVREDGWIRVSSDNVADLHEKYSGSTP

[2] = molecular target: 20S proteasome chymotrypsin-like activity (CT-L) (Homo sapiens, UniProt P20618+P28074); test: 20S proteasome chymotrypsin-like (CT-L) activity inhibition; format: biochemical
Protocol: The enzyme inhibitor analogs and prodrugs disclosed herein are useful in part because they inhibit the action of the 20S proteasome. […] That is, the instant compounds show selectivities for the 20S proteasome over other proteases such as cathepsins, calpains, papain, chymotrypsin, trypsin, tripeptidyl pepsidase II. The selectivities of the enzyme inhibitors for 20S proteasome are such that at concentrations below about 50 μM, the enzyme inhibitors show inhibition of the catalytic activity of the 20S proteasome, while not showing inhibition of the catalytic activity of other proteases such as cathepsins, calpains, papain, chymotrypsin, trypsin, tripeptidyl pepsidase II. In preferred embodiments, the enzyme inhibitors show inhibition of the catalytic activity of the 20S proteasome at concentrations below about 10 μM, while not showing inhibition of the catalytic activity of other proteases at these concentrations. […]
The chymotrypsin-like activity of 20S proteasome is characterized by cleavage of peptides in the immediate vicinity of large hydrophobic residues. In particular, the chymotrypsin-like activity of Ntn hydrolases can be determined by cleavage of a standard substrate. […]

IC50 [1]: < 100 nM | IC50 [2]: < 100 nM
Structure (SMILES): CC(C)CC(NC(=O)C(CCc1ccccc1)NC(=O)CN(C)C)C(=O)NC(Cc1ccccc1)C(=O)NC(CC(C)C)C(=O)C1(C)CO1 (centres unmarked) [compound 3]
